Experiments:
Type in all cases: cell-based
BRAF V600E = target: T1, BRAF V600E (Homo sapiens, UniProt P15056, V600E); test: BRAF HiBiT degradation assay, C-terminal HiBiT-tagged BRAF V600E A375 cells (clone 1F10), Nano-Glo HiBiT Lytic assay; details: A375 (BRAF V600E); for DC50: DC50 at 50%: fitted conc. at Y=50; for Dmax: A-375, percentage protein degraded at maximal compound effect relative to DMSO
T1 construct: endogenous C-terminal HiBiT fusion tag on BRAF V600E allele; endogenous in cells; host or cells: A375 clone 1F10 (CRISPR-Cas9 knock-in of the HiBiT tag; parental A375 from ATCC)
T1 sequence (P15056 whole entry V600E, the tested form may be a part): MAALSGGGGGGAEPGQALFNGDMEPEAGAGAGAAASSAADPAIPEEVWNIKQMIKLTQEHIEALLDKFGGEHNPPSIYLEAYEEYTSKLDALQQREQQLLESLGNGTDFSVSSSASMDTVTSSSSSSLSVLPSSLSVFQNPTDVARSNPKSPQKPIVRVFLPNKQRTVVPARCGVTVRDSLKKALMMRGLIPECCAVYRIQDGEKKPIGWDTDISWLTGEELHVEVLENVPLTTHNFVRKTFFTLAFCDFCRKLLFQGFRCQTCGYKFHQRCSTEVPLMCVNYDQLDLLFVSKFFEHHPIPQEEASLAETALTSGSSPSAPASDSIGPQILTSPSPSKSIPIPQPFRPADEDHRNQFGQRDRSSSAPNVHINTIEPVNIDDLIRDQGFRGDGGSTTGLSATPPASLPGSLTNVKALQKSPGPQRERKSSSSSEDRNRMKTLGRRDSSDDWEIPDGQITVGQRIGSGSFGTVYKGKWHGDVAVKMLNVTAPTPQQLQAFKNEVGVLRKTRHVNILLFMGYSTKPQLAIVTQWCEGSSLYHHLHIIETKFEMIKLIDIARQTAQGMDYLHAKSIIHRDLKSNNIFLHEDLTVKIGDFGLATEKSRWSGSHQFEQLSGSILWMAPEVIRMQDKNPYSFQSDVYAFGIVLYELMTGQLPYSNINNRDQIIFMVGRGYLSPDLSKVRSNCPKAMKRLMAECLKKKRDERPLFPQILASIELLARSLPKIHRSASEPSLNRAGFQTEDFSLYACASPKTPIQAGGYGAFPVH
In short: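 Luminescence read-out: Nano-Glo HiBiT lytic reagent with LgBiT, 10 min at room temperature. Signal normalised to DMSO-treated tagged cells, with wildtype A375 as background. Cells are endogenously tagged BRAF V600E A375 clone 1F10. Compounds were tested from 1 μM to 0.01 nM; Dmax is observed % degraded at maximal effect.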

BRAF G466V = target: T2, BRAF G466V (Homo sapiens, UniProt P15056, G466V); test: BRAF HiBiT degradation assay, C-terminal HiBiT-tagged BRAF G466V overexpressed in HCT-116 BRAF−/− cells (clone 8), Nano-Glo HiBiT Lytic assay; details: BRAF G466V; for DC50: DC50 at 50%: fitted conc. at Y=50; for Dmax: HCT-116, percentage protein degraded at maximal compound effect relative to DMSO
T2 construct: Horizon Discovery (HCT-116 BRAF−/− cells); host or cells: HCT-116 BRAF−/− cells, clone 8, lentiviral transduction
T2 sequence (P15056 whole entry G466V): as the sequence (P15056 whole entry V600E, the tested form may be a part) above, with G466V, E600V counted along it
In short: (§1)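 Cells 3,000/well, 24 h at 37 °C; cpds 1 μM–0.01 nM, 11-pt half-log, duplicate, 0.2% DMSO. Readout: HiBiT lytic luminescence, 10 min at RT. Normalized to DMSO-treated tagged cells, with DMSO-treated wild-type HCT-116 as background. DC50 = fitted concentration at Y=50; Obs. Dmax = % degraded at maximal effect.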

BRAF G469A = target: T3, BRAF G469A (Homo sapiens, UniProt P15056, G469A); test: BRAF HiBiT degradation assay, C-terminal HiBiT-tagged BRAF G469A overexpressed in HCT-116 BRAF−/− cells (clone 34), Nano-Glo HiBiT Lytic assay; details: Class 2, BRAF G469A; for DC50: DC50 at 50%: fitted conc. at Y=50; for Dmax: HCT-116, percentage protein degraded at maximal compound effect relative to DMSO
T3 construct: Horizon Discovery (HCT-116 BRAF−/− cells); host or cells: HCT-116 BRAF−/− cells, clone 34, lentiviral transduction
T3 sequence (P15056 whole entry G469A): as the sequence (P15056 whole entry V600E, the tested form may be a part) above, with G469A, E600V counted along it
In short: as §1

BRAF D594G = target: T4, BRAF D594G (Homo sapiens, UniProt P15056, D594G); test: BRAF HiBiT degradation assay, C-terminal HiBiT-tagged BRAF D594G overexpressed in HCT-116 BRAF−/− cells (clone 63), Nano-Glo HiBiT Lytic assay; details: BRAF D594G; for DC50: DC50 at 50%: fitted conc. at Y=50; for Dmax: HCT-116, percentage protein degraded at maximal compound effect relative to DMSO
T4 construct: Horizon Discovery (HCT-116 BRAF−/− cells); host or cells: HCT-116 BRAF−/− cells, clone 63, lentiviral transduction
T4 sequence (P15056 whole entry D594G): as the sequence (P15056 whole entry V600E, the tested form may be a part) above, with D594G, E600V counted along it
In short: as §1

Compound | DC50 (BRAF V600E) [nM] | Dmax (BRAF V600E) [%] | DC50 (BRAF G466V) [nM] | Dmax (BRAF G466V) [%] | DC50 (BRAF G469A) [nM] | Dmax (BRAF G469A) [%] | DC50 (BRAF D594G) [nM] | Dmax (BRAF D594G) [%]
CCN(C)S(=O)(=O)Nc1cccc(-c2nc(C3CCN(C(=O)C4CCN(C(=O)C5CCN(c6ccc(C7CCC(=O)NC7=O)cn6)CC5)CC4)CC3)sc2-c2ccnc(N)n2)c1F (racemic) [Compound 209, Rac-(3S)-3-{6-[4-(4-{4-[5-(2-aminopyrimidin-4-yl)-4-(3-{[ethyl(methyl)sulfamoyl]amino}-2-fluorophenyl)-1,3-thiazol-2-yl]piperidine-1-carbonyl}piperidine-1-carbonyl)piperidin-1-yl]pyridin-3-yl}piperidine-2,6-dione] | < 10 | > 70 | < 10 | > 70 | 10 to 50 | 30 to 70 | < 10 | > 70
CCCS(=O)(=O)Nc1cccc(-c2nc(C3CCN(C(=O)C4CCN(C(=O)C5CCN(c6ccc(C7CCC(=O)NC7=O)cn6)CC5)CC4)CC3)sc2-c2ccncc2)c1F (racemic) [Compound 210, Rac-N-[3-(2-{1-[1-(1-{5-[(3R)-2,6-dioxopiperidin-3-yl]pyridin-2-yl}piperidine-4-carbonyl)piperidine-4-carbonyl]piperidin-4-yl}-5-(pyridin-4-yl)-1,3-thiazol-4-yl)-2-fluorophenyl]propane-1-sulfonamide] | < 10 | > 70 | < 10 | 30 to 70 | 50 to 500 | 30 to 70 | < 10 | 30 to 70
CCCS(=O)(=O)Nc1cccc(-c2nc(C3CCN(C(=O)C4CCN(CC5CCN(c6ccc(C7CCC(=O)NC7=O)cn6)CC5)CC4)CC3)sc2-c2ccncc2)c1F (racemic) [Compound 211, Rac-N-{3-[2-(1-{1-[(1-{5-[(3R)-2,6-dioxopiperidin-3-yl]pyridin-2-yl}piperidin-4-yl)methyl]piperidine-4-carbonyl}piperidin-4-yl)-5-(pyridin-4-yl)-1,3-thiazol-4-yl]-2-fluorophenyl}propane-1-sulfonamide] | 50 to 500 | > 70 | > 500 | 30 to 70 | > 500 | < 30 | > 500 | 30 to 70
CCCS(=O)(=O)Nc1cccc(-c2nc(C3CCN(C(=O)C4CCN(C(=O)C5CCN(c6ccc(C7CCC(=O)NC7=O)cn6)CC5)CC4)CC3)sc2-c2ccnc(NC)n2)c1F (racemic) [Compound 212, Rac-N-[3-(2-{1-[1-(1-{5-[(3R)-2,6-dioxopiperidin-3-yl]pyridin-2-yl}piperidine-4-carbonyl)piperidine-4-carbonyl]piperidin-4-yl}-5-[2-(methylamino)pyrimidin-4-yl]-1,3-thiazol-4-yl)-2-fluorophenyl]propane-1-sulfonamide] | < 10 | > 70 | < 10 | 30 to 70 | 10 to 50 | 30 to 70 | < 10 | 30 to 70
CCCS(=O)(=O)Nc1cccc(-c2nc(C3CCN(C(=O)CN4CCC5(CC4)CN(c4ccc6c(c4)C(=O)N(C4CCC(=O)NC4=O)C6=O)C5)CC3)sc2-c2ccnc(NC)n2)c1F (racemic) [Compound 219, Rac-N-[3-(2-{1-[2-(2-{2-[(3R)-2,6-dioxopiperidin-3-yl]-1,3-dioxo-2,3-dihydro-1H-isoindol-5-yl}-2,7-diazaspiro[3.5]nonan-7-yl)acetyl]piperidin-4-yl}-5-[2-(methylamino)pyrimidin-4-yl]-1,3-thiazol-4-yl)-2-fluorophenyl]propane-1-sulfonamide] | < 10 | > 70 | < 10 | 30 to 70 | > 500 | 30 to 70 | > 500 | 30 to 70
CCCS(=O)(=O)Nc1cccc(-c2nc(C3CCN(C(=O)C4CCN(C(=O)C5CCN(c6ccc(C7CCC(=O)NC7=O)cn6)CC5)CC4)CC3)sc2-c2ccncn2)c1F (racemic) [Compound 220, Rac-N-[3-(2-{1-[1-(1-{5-[(3R)-2,6-dioxopiperidin-3-yl]pyridin-2-yl}piperidine-4-carbonyl)piperidine-4-carbonyl]piperidin-4-yl}-5-(pyrimidin-4-yl)-1,3-thiazol-4-yl)-2-fluorophenyl]propane-1-sulfonamide] | < 10 | > 70 | 10 to 50 | 30 to 70 | > 500 | 30 to 70 | < 10 | 30 to 70

More lines, now with the values ahead:

DC50 (BRAF V600E) [nM] | Dmax (BRAF V600E) [%] | DC50 (BRAF G466V) [nM] | Dmax (BRAF G466V) [%] | DC50 (BRAF G469A) [nM] | Dmax (BRAF G469A) [%] | DC50 (BRAF D594G) [nM] | Dmax (BRAF D594G) [%] | Compound
10 to 50 | > 70 | > 500 | < 30 | > 500 | < 30 | > 500 | < 30 | CCCS(=O)(=O)Nc1cccc(-c2nc(C3CCN(C4CN(C(=O)CC5CCN(c6ccc(C7CCC(=O)NC7=O)cc6)CC5)C4)CC3)sc2-c2ccnc(N)n2)c1F (racemic) [Compound 215, Rac-N-{3-[5-(2-aminopyrimidin-4-yl)-2-(1-{1-[2-(1-{4-[(3R)-2,6-dioxopiperidin-3-yl]phenyl}piperidin-4-yl)acetyl]azetidin-3-yl}piperidin-4-yl)-1,3-thiazol-4-yl]-2-fluorophenyl}propane-1-sulfonamide]
10 to 50 | > 70 | > 500 | 30 to 70 | > 500 | < 30 | > 500 | 30 to 70 | CCCS(=O)(=O)Nc1cccc(-c2nc(C3CCN(C(=O)C4CCN(CC5CCN(c6ccc(C7CCC(=O)NC7=O)cn6)CC5)CC4)CC3)sc2-c2ccnc(NC)n2)c1F (racemic) [Compound 217, Rac-N-{3-[2-(1-{1-[(1-{5-[(3R)-2,6-dioxopiperidin-3-yl]pyridin-2-yl}piperidin-4-yl)methyl]piperidine-4-carbonyl}piperidin-4-yl)-5-[2-(methylamino)pyrimidin-4-yl]-1,3-thiazol-4-yl]-2-fluorophenyl}propane-1-sulfonamide]
10 to 50 | > 70 | > 500 | 30 to 70 | > 500 | 30 to 70 | > 500 | 30 to 70 | CCCS(=O)(=O)Nc1cccc(-c2nc(C3CCN(C(=O)C4CCN(CC5CCN(c6ccc(C7CCC(=O)NC7=O)cn6)CC5)CC4)CC3)sc2-c2ccncn2)c1F (racemic) [Compound 221, Rac-N-{3-[2-(1-{1-[(1-{5-[(3R)-2,6-dioxopiperidin-3-yl]pyridin-2-yl}piperidin-4-yl)methyl]piperidine-4-carbonyl}piperidin-4-yl)-5-(pyrimidin-4-yl)-1,3-thiazol-4-yl]-2-fluorophenyl}propane-1-sulfonamide]
< 10 | > 70 | > 500 | 30 to 70 | > 500 | < 30 | > 500 | 30 to 70 | CCCS(=O)(=O)Nc1cccc(-c2nc(C3CCN(CC4CCN(C(=O)[C@H]5CC[C@H](Oc6ccc(C7CCC(=O)NC7=O)cc6)CC5)CC4)CC3)sc2-c2ccnc(N)n2)c1F (mixture of isomers) [Compound 224, N-{3-[5-(2-aminopyrimidin-4-yl)-2-[1-({1-[(1r,4r)-4-{4-[(3RS)-2,6-dioxopiperidin-3-yl]phenoxy}cyclohexanecarbonyl]piperidin-4-yl}methyl)piperidin-4-yl]-1,3-thiazol-4-yl]-2-fluorophenyl}propane-1-sulfonamide]
10 to 50 | > 70 | > 500 | 30 to 70 | > 500 | < 30 | > 500 | 30 to 70 | CCCS(=O)(=O)Nc1cccc(-c2nc(C3CCN(CC4CCN(C[C@H]5CC[C@H](Oc6ccc(C7CCC(=O)NC7=O)cc6)CC5)CC4)CC3)sc2-c2ccnc(N)n2)c1F (mixture of isomers) [Compound 225, N-{3-[5-(2-aminopyrimidin-4-yl)-2-{1-[(1-{[(1r,4r)-4-{4-[(3RS)-2,6-dioxopiperidin-3-yl]phenoxy}cyclohexyl]methyl}piperidin-4-yl)methyl]piperidin-4-yl}-1,3-thiazol-4-yl]-2-fluorophenyl}propane-1-sulfonamide]

From US20260317324A1, “BIFUNCTIONAL COMPOUNDS FOR DEGRADING BRAF VIA UBIQUITIN PROTEOSOME PATHWAY” (Nurix Therapeutics, Inc., priority 2023, published 2026)
